Activity calls are given as the source filed them. No cut-off for these calls is given here.
These compounds were tested against T1, RAC-alpha serine/threonine-protein kinase (Homo sapiens, UniProt P31749) (assay: Inhibition of PKB activation in human overnight starved MCF7 cells assessed as phosphorylated Akt at Ser473 level at 50 ug/ml after 1 hr followed by treated with 1 ug/mL of insulin for 15 mins by Western blotting).
T1 sequence (P31749 whole entry): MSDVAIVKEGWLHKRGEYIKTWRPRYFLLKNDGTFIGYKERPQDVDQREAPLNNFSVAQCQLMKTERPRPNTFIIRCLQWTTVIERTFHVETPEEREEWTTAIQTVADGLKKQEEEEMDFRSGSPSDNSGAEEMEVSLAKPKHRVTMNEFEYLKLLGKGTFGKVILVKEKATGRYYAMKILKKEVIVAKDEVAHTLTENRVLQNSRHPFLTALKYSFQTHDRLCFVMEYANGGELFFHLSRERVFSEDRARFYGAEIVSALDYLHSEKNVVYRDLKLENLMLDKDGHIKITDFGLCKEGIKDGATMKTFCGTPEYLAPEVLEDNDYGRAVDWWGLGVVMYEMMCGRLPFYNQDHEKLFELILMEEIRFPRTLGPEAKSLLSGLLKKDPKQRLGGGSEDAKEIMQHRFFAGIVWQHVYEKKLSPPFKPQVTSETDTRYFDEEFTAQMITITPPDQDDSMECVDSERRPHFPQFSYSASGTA

Row | inhibition of PKB activation (active/not active) | Compound
1 | inactive | CCc1ccc(OC(C)=O)c(Cc2ccccc2OC(C)=O)c1
2 | Active | CC(=O)Oc1ccccc1Cc1cc(CCCl)ccc1OC(C)=O

More lines, now with the values behind:

Row | Compound | inhibition of PKB activation (active/not active)
3 | CCc1ccc(OC(C)=O)c(Cc2cc(CC)ccc2OC(C)=O)c1 | Active
4 | CC(=O)Oc1ccccc1Cc1ccccc1OC(C)=O | inactive
5 | CCc1ccc(OC(C)=O)c(Cc2cc(CCCl)ccc2OC(C)=O)c1 | Active
6 | CCc1ccc(Cc2cc(CCCl)ccc2OC(C)=O)c(OC(C)=O)c1 | Active

These compounds were tested against T1, RAC-alpha serine/threonine-protein kinase (assay: Inhibition of PKB/Akt activation in human overnight starved MCF7 cells assessed as phosphorylated Akt at Ser473 level at 50 ug/ml after 1 hr followed by treated with 1 ug/mL of insulin for 15 mins by Western blotting).
Type: cell-based

Row | IC50 | Compound
7 | 25 µM | CCc1ccc(OC(C)=O)c(Cc2cc(CCCl)ccc2OC(C)=O)c1

— ChEMBL document CHEMBL1250440, “Development of chemical probes: toward the mode of action of a methylene-linked di(aryl acetate) E1” (Bioorg Med Chem, 2010)
